In US4456593A, “Ristocetin .psi.-aglycone as an antibacterial agent” (Abbott Laboratories, priority 1982, dated 1984):
Where “and” joins values, the source holds several entries; their conditions need not be identical. Identical values can stand only once.

What was measured:
S. aureus = test: Anti-infective Test - Cure of Acute Mouse Bacterial Infection (mouse protection), S. aureus; assay type: in vivo; conditions: for CD50 (curative dose50, total dose required to cure half the animals): dosed 1 and 5 hours post-infection, 95 percent confidence limits in brackets
Method: (§1) Anti-infective Test--Cure of Acute Mouse Bacterial Infection
(§2) To determine the ability of potential anti-microbial agents to cure mice of an otherwise lethal infection.
Bacterial strains used in this test have been previously tested and, if necessary, adapted to mice and are maintained on brain heart infusion (BHI) agar slants at 4° C. Tubes of BHI broth are inoculated from the slants and incubated for 18 hours at 37° C. Serial ten-fold dilutions of this culture are made in BHI broth. The bacterial suspensions used to infect mice are obtained by making the final ten-fold dilution in 5 percent aqueous hog gastric mucin (American Laboratories Incorporated). Mice are infected by an intraperitoneal injection of 0.75 ml. of the resulting suspension. The dilution of test organism selected (standard inoculum) is based on prior experience with that organism and is usually 10-100-fold more concentrated than the LD50 dilution, i.e., that concentration which when administered as described above causes 50 percent mortalities.
The antimicrobial test substance is dissolved at the desired concentration in a suitable vehicle (sterile water, unless otherwise specified) and four serial, two-fold dilutions of this solution are made with the vehicle.
In dosing the animals, all mice are considered to weigh 20 grams. The volume administered is always 0.5 ml. at 1 and 5 hours post-infection (total of 1.0 ml.), with half of the total dose given at each time.
Administration of Test Substances:
The test substance may be administered by any of the following routes:
2. Subcutaneously, at the nape of the neck,
3. Intramuscularly in the thigh,
4. Intravenously in the tail vein.
Female Swiss albino mice weighing 18 to 20 grams are divided randomly into groups of ten animals and housed one group to a cage. Food (standard mouse pellets) and water are supplied ad lib throughout the test. All animals are sacrificed at the conclusion of the test.
Group T0 is neither infected nor treated, but is observed for seven days. If more than one mortality occurs in this group, the data will be reviewed to determine is there is cause to invalidate the test.
Groups T1 through T4 are used to monitor the strength of the infection actually used in this experiment. These groups are infected but untreated. Group T1 is infected with the standard inoculum, and groups T2 through T4 are infected with successive ten-fold dilutions of the organism prepared such that only the final dilution in each case is made with 5 percent aqueous hog gastric mucin. These groups are observed for seven days, mortalities are recorded and used to determine the number of challenge LD50's (within ten-fold limits) present in the standard inoculum used to infect medicated groups of animals.
Groups T5 through T9 are infected intraperitoneally with the standard inoculum. Each group is treated with one of the two-fold dilutions of the test substance by a specified route of administration at 1 hour and 5 hours post infection. The animals are observed for seven days and mortalities are recorded.
Further sets of five groups of animals are infected and treated in the same manner as groups T5 through T9 for each additional test substance studied.
CD50's (the total dose, in mg./kg., required to cure half the animals) are calculated by standard statistical methods and are reported with 95 percent confidence limits where these are obtainable or annotated with PS (poor slope) where they are not.
This test is performed in primary and secondary variations. […]

E. coli (J) = test: Anti-infective Test - Cure of Acute Mouse Bacterial Infection (mouse protection), E. coli; assay type: in vivo; conditions: E. coli (J) intraperitoneal infection in female Swiss albino mice; route I.V.; dosed 1 and 5 hours post-infection; observed seven days
Method: as §1, §2
Bacterial strains used in this test have been previously tested and, if necessary, adapted to mice and are maintained on brain heart infusion (BHI) agar slants at 4° C. Tubes of BHI broth are inoculated from the slants and incubated for 18 hours at 37° C. Serial ten-fold dilutions of this culture are made in BHI broth. The bacterial suspensions used to infect mice are obtained by making the final ten-fold dilution in 5 percent aqueous hog gastric mucin (American Laboratories Incorporated). […]
Groups T1 through T4 are used to monitor the strength of the infection actually used in this experiment. […] These groups are observed for seven days, mortalities are recorded and used to determine the number of challenge LD50's (within ten-fold limits) present in the standard inoculum used to infect medicated groups of animals.
Groups T5 through T9 are infected intraperitoneally with the standard inoculum. […] The animals are observed for seven days and mortalities are recorded. […]
CD50's (the total dose, in mg./kg., required to cure half the animals) are calculated by standard statistical methods and are reported with 95 percent confidence limits where these are obtainable or annotated with PS (poor slope) where they are not. […]

[1] = S. aureus (S) intraperitoneal infection in female Swiss albino mice, route I.V., observed seven days

| Molecule | Percent Surviving Mice With Varying Drug Dose (S. aureus; S. aureus (S) infection in mice, route I.V., dose of this cell not printed as text) [%] | CD50 (curative dose50, total dose required to cure half the animals) (S. aureus; S. aureus (SC) intraperitoneal infection in female Swiss albino mice, route cell is a drawing (not readable)) | CD50 (curative dose50, total dose required to cure half the animals) (E. coli (J)) [mg/kg] | CD50 (curative dose50, total dose required to cure half the animals) (S. aureus; [1]) | CD50 (curative dose50, total dose required to cure half the animals) (S. aureus; S. aureus (S) intraperitoneal infection in female Swiss albino mice, route S.C., observed seven days) |
| --- | --- | --- | --- | --- | --- |
| COC(=O)[C@H]1NC(=O)[C@H]2NC(=O)[C@H](NC(=O)[C@@H]3NC(=O)[C@H]4NC(=O)[C@H](NC(=O)[C@H](N)c5ccc(O)c(c5)Oc5cc4cc(O)c5C)[C@H](O)c4ccc(cc4)Oc4cc3cc(c4O)Oc3ccc(cc3)[C@H]2O)c2ccc(O)c(c2)-c2c(O)cc(O)cc21 [Compound 2, Ristocetin aglycone] | 90 | 2.7 (1.8-4.1) mg./kg. | 50 | – | – |
| Ristocetin [Compound 1] | – | – | 50 | 4.1 mg./kg. and 6.6 mg./kg. and 5.6 (4.2-7.5) mg./kg. and 6 mg./kg. | 3.7 (2.4-5.7) mg./kg. |
| O--demethylristocetin aglycone [Compound 3] | – | – | – | 9.3 (5.9-17.3) mg./kg. | – |
